According to patent publication US9045474B2, “Compounds and compositions for mitigating tissue damage and lethality” (The Regents of the University of California, priority 2010, dated 2015):

Assays:
[1] = Mitigation assay of analogs at +30 min and +60 min after 8 Gy IR; conditions: FIG. 20
Description: Fourteen analogs of Yel001 and Yel002, whose structures are shown in FIGS. 19A and 19B, are subject to tests in a mitigation assay at +30 min and +60 min after 8 Gy radiation (IR).

[2] = system: C3H mice; assay: Mitigation of radiation-induced lethality in C3H mice (8Gy, LD100/30); conditions: 8Gy
Description: Radiomitigation studies were conduced by pre-treating C3H mice with the compounds of interest at as concentration of 75 mg/kg and at 24 hrs and 1 hr before an 8 Gy exposure. On a 5×24 mitigation treatment protocol mice were first lethally irradiated with 8 Gy and 24 hrs later received the first subcutaneous injection with the compound suspension with subsequent injections at 48, 72, 96, and 120 hrs. The concentration of the compound in the suspension was 75 mg/kg carrier with either 1N saline or phosphate buffer solution (PBS).
C3H mice in the mitigation experiment were irradiated with 8Gy and then injected with 75 mg/kg 1 hr post exposure and then again 25 hrs post exposure.

Cc1sc(NC(=O)CN(Cc2ccco2)C(=O)c2ccccc2)c(C(N)=O)c1C [CJ010]
mitigation of IR damage [1]: consistently mitigates the IR damage | mitigation efficacy ([2]; 75 mg/kg s.c. 5×24 protocol): significantly mitigated IR-induced damages and death | survival at 30 days ([2]; 75 mg/kg s.c. at 24, 48, 72, 96, 120 hrs (5×24)): 75%
